Patent US9169255B2, “Caffeinated compounds and compositions for treatment of amyloid diseases and synucleinopathies” (ProteoTech Inc, priority 2011, dated 2015)

Columns and labels:
Assay type in all cases: biochemical
[1] = target: T1, Aβ 1-42 (Homo sapiens, UniProt P05067); experiment: Thioflavin T fluorometry, inhibition of β-sheet formation of non-fibrillar Aβ 1-42; set-up: pre-fibrillized human Aβ 1-42 (rPeptide); purchased rPeptide; conditions: for Thioflavin T fluorometry-% Inhibition: 24 hours
Procedure: To test whether the compounds can inhibit β-sheet formation of Aβ, the same assay as described in Example 5 was utilized, but the Aβ was prepared so that it is in a non-fibrillar state at the start of the assay. To achieve this non-fibrillar state, lyophilized human Aβ 1-42 (rPeptide) was dissolved to 1 mg/mL (220 μM) using 2 mM NaOH and the pH was adjusted to 10.5 with small (μL) additions of 1M NaOH. The clear solution was then frozen, re-lyophilized, and dissolved in a buffer containing 9.5 mM phosphate, 137 mM sodium chloride and 2.7 mM potassium chloride (phosphate-buffered saline; PBS) to a concentration of 2 mg/mL (440 μM) Aβ. […] The reactions containing Aβ+test compounds (or Aβ+PBS as a control for Aβ aggregation) were then incubated for 24 hours, the incubation mixtures were diluted 1:20 to 0.05 mg/mL Aβ and 50 μL of each diluted incubation mixture was transferred into a 96-well microtiter plate containing 150 μL of distilled water and 50 μL of a Thioflavin T solution (i.e. 500 μM Thioflavin T in 250 mM phosphate buffer, pH 6.8). The final concentration of Aβ was 2.2 μM and the concentration of Thioflavin T reagent was 100 μM in 50 mM phosphate buffer, pH 6.8. The fluorescence was read at 485 nm (444 nm excitation wavelength) using an ELISA plate fluorometer after subtraction with PBS buffer alone or compound alone, as blank.

[2] = target: T2, α-synuclein fibrils (Homo sapiens, UniProt P37840); experiment: Thioflavin T fluorometry, disruption of pre-formed α-synuclein fibrils; conditions: 2-day incubation
T2 construct: purchased rPeptide, Bogart, Calif
Procedure: In this set of studies, the efficacy of certain compounds provided herein to cause a disassembly/disruption/disaggregation of pre-formed fibrils of Parkinson's disease (i.e. consisting of α-synuclein fibrils) was analyzed. For the studies described below in Parts A and B, 69 μM of α-synuclein (rPeptide, Bogart, Calif.) was first incubated at 37° C. for 4 days in 20 mM sodium acetate buffer at pH 4 with circular shaking (1,300 rpm) to cause α-synuclein aggregation and fibril formation.
In one study, Thioflavin T fluorometry was used to determine the effects of the compounds on α-synuclein fibrils. […] In this assay Thioflavin T binds specifically to fibrillar protein, and this binding produces a fluorescence enhancement at 485 nm that is directly proportional to the amount of fibrils formed.
Following initial α-synuclein fibrilization as described above, the α-synuclein (6.9 μM) mixture was then incubated at 37° C. for 2 days with shaking (200 rpm), either alone, or in the presence of one of the compounds (at test compound:α-synuclein molar ratios of 10:1, 1:1, 0.1:1, and 0.01:1) in phosphate-buffered saline, pH 7.4+0.02% sodium azide. Following 2 days of co-incubation, 50 μl (5 μg) of each incubation mixture was transferred into a 96-well microtiter plate containing 150 μl of distilled water and 50 μl of a Thioflavin T solution (i.e. 500 μM Thioflavin T in 250 mM phosphate buffer, pH 6.8). The final concentration of Thioflavin T reagent is 100 μM in 50 mM phosphate buffer, pH 6.8. The fluorescence was read at 485 nm (444 nm excitation wavelength) using an ELISA plate fluorometer. Subtraction of the signal obtained from a diluted reaction (blank) containing buffer alone or compound alone at a concentration equivalent to that of its corresponding α-synuclein-containing reaction was used to quantitate the amount of Thioflavin T fluorescence in each α-synuclein-containing reaction that is proportional to the protein fibril content in that reaction.

[3] = target: T1, Aβ 1-42; experiment: Circular dichroism (CD) spectroscopy, inhibition of β-sheet formation of Aβ; conditions: for magnitude of the change of the ellipticity minimum at 218 nm relative to Aβ alone: 24 hours of incubation, at appropriate concentrations; for Circular Dichroism Spectroscopy -% Inhibition: 24 hours
Procedure: For this purpose, the Aβ reactions that were used in the Thioflavin T fluorometry assay (Part A in this Example) were assessed at 24 hours of aggregation. Aβ alone was also assessed by CD spectral analysis at t=0, prior to aggregation, (t=0, unfolded reference control). After 24 hours, reactions were diluted 20-fold in PBS and a CD spectrum for each reaction was acquired on a Jasco J-810 spectropolarimeter using a 0.1 cm path length cell. All spectra were recorded with a step size of 0.1 nm, a bandwidth of 1 nm, and an Aβ concentration of 0.05 mg/ml. The spectra were trimmed at the shortest wavelength that still provided a dynode voltage less than 600V. The trimmed spectra were then subjected to a data processing routine beginning with noise reduction by Fourier transform followed by subtraction of a blank spectrum (vehicle only without Aβ). These blank corrected spectra were then zeroed at 260 nm and the units converted from millidegrees to specific ellipticity.
Percent β-sheet was determined from processed spectra using the ellipticity minimum value at approximately 218 nm and referencing to a scale normalized to nearly fully folded and unfolded reference values, consistent with previous reports (Ramirez-Alvarado et al., J. Mol. Biol., 273:898-912, 1997; Andersen et al., J. Am. Chem. Soc., 121:9879-9880, 1999). The fully folded reference value was found by performing the described calculation on the spectrum of Aβ fibrillized for 24 hours (complete fibrillization), and assigning this difference the arbitrary value of 100% β-sheet. The unfolded reference was provided by the spectrum from the same sample at the initial time point (t=0) and ascribing the difference found here the arbitrary value of 0% β-sheet. These percent β-sheet values were then used to provide the respective relative % inhibition of β-sheet induced by the compounds at given molar ratio of test compound:Aβ.

[4] = compound:peptide molar ratio 0.01:1
[5] = compound:peptide molar ratio 0.1:1
[6] = compound:peptide molar ratio 1:1
[7] = compound:peptide molar ratio 10:1

T1 sequence (P05067 672-713 limits assumed): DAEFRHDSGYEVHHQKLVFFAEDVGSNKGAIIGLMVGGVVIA

## 1,3-dimethyl-7-(3′,4′-dibenzyloxy)benzyl-8-(3′,4′-dihydroxyphenyl)xanthine [PD-154]
[1]; compound:Aβ molar ratio 5:1
  Thioflavin T fluorometry-% Inhibition: 0%
[1]; compound:Aβ molar ratio 10:1
  Thioflavin T fluorometry-% Inhibition: 33%
[2]; [4]
  Thioflavin T fluorometry-% Inhibition: 7%
[2]; [5]
  Thioflavin T fluorometry-% Inhibition: 10%
[2]; [6]
  Thioflavin T fluorometry-% Inhibition: 25%
[2]; [7]
  Thioflavin T fluorometry-% Inhibition: 43%

## Cn1cnc2c1c(=O)n(Cc1ccc(O)c(O)c1)c(=O)n2Cc1ccc(O)c(O)c1 [PD-150, 7-Methyl-1,3-bis(3′,4′-dihydroxy)benzylxanthine]
[1]; compound:Aβ molar ratio 1:1
  Thioflavin T fluorometry-% Inhibition: 23%
[1]; compound:Aβ molar ratio 10:1
  Thioflavin T fluorometry-% Inhibition: 93%
[2]; [4]
  Thioflavin T fluorometry-% Inhibition: 0%
[2]; [5]
  Thioflavin T fluorometry-% Inhibition: 0%
[2]; [6]
  Thioflavin T fluorometry-% Inhibition: 48%
[2]; [7]
  Thioflavin T fluorometry-% Inhibition: 84%
[3]
  magnitude of the change of the ellipticity minimum at 218 nm relative to Aβ alone: reduced
[3]; compound:Aβ molar ratio 0.5:1
  Circular Dichroism Spectroscopy -% Inhibition: 40%
[3]; compound:Aβ molar ratio 1:1
  Circular Dichroism Spectroscopy -% Inhibition: 42%
[3]; compound:Aβ molar ratio 5:1
  Circular Dichroism Spectroscopy -% Inhibition: 69%
[3]; compound:Aβ molar ratio 10:1
  Circular Dichroism Spectroscopy -% Inhibition: 62%
[3]; test compound:Aβ molar ratios ≧5:1
  inhibition of β-sheet formation in Aβ (CD): at least 62%

## Cn1c(=O)n(Cc2ccc(O)c(O)c2)c(=O)c2c1ncn2Cc1ccc(O)c(O)c1 [PD-151, 3-Methyl-1,7-bis(3′,4′-dihydroxybenzyl)xanthine]
[1]; compound:Aβ molar ratio 1:1
  Thioflavin T fluorometry-% Inhibition: 9%
[1]; compound:Aβ molar ratio 10:1
  Thioflavin T fluorometry-% Inhibition: 87%
[2]; [4]
  Thioflavin T fluorometry-% Inhibition: 4%
[2]; [5]
  Thioflavin T fluorometry-% Inhibition: 15%
[2]; [6]
  Thioflavin T fluorometry-% Inhibition: 56%
[2]; [7]
  Thioflavin T fluorometry-% Inhibition: 89%
[3]
  magnitude of the change of the ellipticity minimum at 218 nm relative to Aβ alone: reduced
[3]; compound:Aβ molar ratio 0.5:1
  Circular Dichroism Spectroscopy -% Inhibition: 38%
[3]; compound:Aβ molar ratio 1:1
  Circular Dichroism Spectroscopy -% Inhibition: 43%
[3]; compound:Aβ molar ratio 5:1
  Circular Dichroism Spectroscopy -% Inhibition: 66%
[3]; compound:Aβ molar ratio 10:1
  Circular Dichroism Spectroscopy -% Inhibition: 67%

## Cn1c(=O)c2c(ncn2Cc2ccc(O)c(O)c2)n(Cc2ccc(O)c(O)c2)c1=O [PD-152]
[1]; compound:Aβ molar ratio 5:1
  Thioflavin T fluorometry-% Inhibition: 23%
[1]; compound:Aβ molar ratio 10:1
  Thioflavin T fluorometry-% Inhibition: 61%
[2]; [4]
  Thioflavin T fluorometry-% Inhibition: 0%
[2]; [5]
  Thioflavin T fluorometry-% Inhibition: 4%
[2]; [6]
  Thioflavin T fluorometry-% Inhibition: 52%
[2]; [7]
  Thioflavin T fluorometry-% Inhibition: 86%
[3]
  magnitude of the change of the ellipticity minimum at 218 nm relative to Aβ alone: reduced
[3]; compound:Aβ molar ratio 0.5:1
  Circular Dichroism Spectroscopy -% Inhibition: 26%
[3]; compound:Aβ molar ratio 1:1
  Circular Dichroism Spectroscopy -% Inhibition: 42%
[3]; compound:Aβ molar ratio 5:1
  Circular Dichroism Spectroscopy -% Inhibition: 35%
[3]; compound:Aβ molar ratio 10:1
  Circular Dichroism Spectroscopy -% Inhibition: 57%

## Cn1c(=O)c2c(ncn2C)n(C)c1=O [Caffeine, reference compound]
[1]; concentrations tested 50:1, 10:1 and 1:1
  inhibition of Aβ aggregation (Thioflavin T fluorometry): failed to inhibit
[3]
  magnitude of the change of the ellipticity minimum at 218 nm relative to Aβ alone: no effect

## Cn1c(=O)c2c(nc(-c3ccc(O)c(O)c3)n2C)n(C)c1=O [PD-153, 1,3,7-trimethyl-8-(3′,4′-dihydroxyoxyphenyl)xanthine]
[2]; [4]
  Thioflavin T fluorometry-% Inhibition: 7%
[2]; [5]
  Thioflavin T fluorometry-% Inhibition: 17%
[2]; [6]
  Thioflavin T fluorometry-% Inhibition: 18%
[2]; [7]
  Thioflavin T fluorometry-% Inhibition: 37%
[3]
  magnitude of the change of the ellipticity minimum at 218 nm relative to Aβ alone: reduced
[3]; compound:Aβ molar ratio 5:1
  Circular Dichroism Spectroscopy -% Inhibition: 8%
[3]; compound:Aβ molar ratio 10:1
  Circular Dichroism Spectroscopy -% Inhibition: 24%
